Values quoted from earlier work, collected in patent US20250361307A1, “COMBINATION THERAPIES FOR TREATING HYPERPROLIFERATIVE DISORDERS” (X4 Pharmaceuticals, Inc., priority 2022, published 2025).

Columns and labels:
BTK = molecular target: T1, BTK (Homo sapiens, UniProt Q06187); settings: patients with relapsed/refractory CLL and other B-cell disorders; cited from earlier work
T1 construct: endogenous in cells

A1 = molecular target: T2, A1 (Homo sapiens, UniProt Q16548); settings: cited from earlier work
T2 sequence (Q16548 1-175): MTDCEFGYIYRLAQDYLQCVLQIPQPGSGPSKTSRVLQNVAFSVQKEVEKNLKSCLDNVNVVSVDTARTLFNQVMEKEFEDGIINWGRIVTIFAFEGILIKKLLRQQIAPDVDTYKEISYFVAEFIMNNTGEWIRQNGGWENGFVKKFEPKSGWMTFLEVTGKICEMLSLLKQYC

[1] = tested on: small-cell lung cancer and hematologic cell lines; settings: in vivo; cited from earlier work
BCL-2 = BCL-2 (Homo sapiens, UniProt P10415); settings: cited from earlier work
Chain of BCL-2 (P10415 whole entry): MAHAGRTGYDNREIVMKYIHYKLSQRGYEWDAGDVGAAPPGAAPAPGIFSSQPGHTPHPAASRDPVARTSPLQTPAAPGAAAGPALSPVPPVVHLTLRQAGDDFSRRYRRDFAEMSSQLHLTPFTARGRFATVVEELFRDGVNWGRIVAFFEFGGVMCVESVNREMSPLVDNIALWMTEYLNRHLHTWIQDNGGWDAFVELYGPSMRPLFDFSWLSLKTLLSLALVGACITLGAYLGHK

BCL-XL = BCL-XL (Homo sapiens, UniProt Q07817); settings: cited from earlier work
Chain of BCL-XL (Q07817 whole entry): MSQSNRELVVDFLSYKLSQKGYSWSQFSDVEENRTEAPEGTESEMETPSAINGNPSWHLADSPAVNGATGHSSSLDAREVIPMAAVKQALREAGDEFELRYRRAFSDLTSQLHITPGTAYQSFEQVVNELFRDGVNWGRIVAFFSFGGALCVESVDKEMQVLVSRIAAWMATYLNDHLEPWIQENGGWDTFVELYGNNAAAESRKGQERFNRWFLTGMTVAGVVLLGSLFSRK

BCL-w = molecular target: T3, BCL-w (Homo sapiens, UniProt Q92843); settings: cited from earlier work
T3 sequence (Q92843 1-193): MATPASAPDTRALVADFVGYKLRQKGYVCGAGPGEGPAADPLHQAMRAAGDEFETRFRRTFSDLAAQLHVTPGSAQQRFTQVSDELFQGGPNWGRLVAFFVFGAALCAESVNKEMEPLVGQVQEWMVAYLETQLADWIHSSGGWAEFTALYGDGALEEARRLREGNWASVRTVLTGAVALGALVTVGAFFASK

MCL-1 = MCL-1 (Homo sapiens, UniProt Q07820); settings: cited from earlier work
Chain of MCL-1 (Q07820 whole entry): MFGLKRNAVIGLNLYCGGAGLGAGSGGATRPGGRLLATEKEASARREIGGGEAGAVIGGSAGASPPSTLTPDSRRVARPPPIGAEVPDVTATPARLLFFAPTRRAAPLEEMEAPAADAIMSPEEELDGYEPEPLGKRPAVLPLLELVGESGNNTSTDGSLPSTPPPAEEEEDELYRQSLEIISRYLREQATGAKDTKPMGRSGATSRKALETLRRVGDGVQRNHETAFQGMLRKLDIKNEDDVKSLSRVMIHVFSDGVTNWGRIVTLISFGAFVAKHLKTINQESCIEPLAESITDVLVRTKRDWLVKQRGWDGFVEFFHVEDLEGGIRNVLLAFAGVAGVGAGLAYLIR

platelets = settings: cited from earlier work

T1 sequence (Q06187 whole entry): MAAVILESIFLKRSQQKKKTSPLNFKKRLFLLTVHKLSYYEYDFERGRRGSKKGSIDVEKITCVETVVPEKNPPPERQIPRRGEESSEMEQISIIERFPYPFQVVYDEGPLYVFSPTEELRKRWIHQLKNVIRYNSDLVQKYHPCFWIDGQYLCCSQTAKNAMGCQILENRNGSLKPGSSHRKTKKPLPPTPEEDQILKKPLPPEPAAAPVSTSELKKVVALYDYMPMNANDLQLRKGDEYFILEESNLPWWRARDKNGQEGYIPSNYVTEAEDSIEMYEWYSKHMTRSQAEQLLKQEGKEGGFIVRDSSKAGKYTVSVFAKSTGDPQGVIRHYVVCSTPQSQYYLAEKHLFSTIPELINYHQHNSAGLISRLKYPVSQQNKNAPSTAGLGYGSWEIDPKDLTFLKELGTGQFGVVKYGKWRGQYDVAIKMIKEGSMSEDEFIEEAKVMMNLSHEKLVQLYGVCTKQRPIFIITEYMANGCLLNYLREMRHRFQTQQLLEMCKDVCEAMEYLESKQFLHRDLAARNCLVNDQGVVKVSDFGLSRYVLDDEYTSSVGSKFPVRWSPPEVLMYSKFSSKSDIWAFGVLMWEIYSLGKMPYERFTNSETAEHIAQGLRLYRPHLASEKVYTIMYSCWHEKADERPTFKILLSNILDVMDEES

Structure (SMILES): NC(=O)c1ncc(N2CCCCC2)nc1Nc1ccc(C2CCN(C[C@H]3CCN(c4ccc5c(c4)C(=O)N(C4CCC(=O)NC4=O)C5=O)C3)CC2)cc1 (some centres unmarked) [NX-2127]
- degradation of BTK (BTK): clinically meaningful degradation

Structure (SMILES): CC1(C)CCC(c2ccc(Cl)cc2)=C(CN2CCN(c3ccc(C(=O)NS(=O)(=O)c4ccc(N[C@H](CCN5CCOCC5)CSc5ccccc5)c(S(=O)(=O)C(F)(F)F)c4)cc3)CC2)C1 [navitoclax]
- activity against A1 (A1): no activity
- tumor responses [1]: rapid and complete tumor responses
- interaction with BCL-2 (BCL-2): high affinity
- interaction with BCL-XL (BCL-XL): high affinity
- interaction with BCL-w (BCL-w): high affinity
- activity against MCL-1 (MCL-1): no activity

Structure (SMILES): CC1(C)CCC(CN2CCN(c3ccc(C(=O)NS(=O)(=O)c4ccc(NCC5CCOCC5)c([N+](=O)[O-])c4)c(Oc4cnc5[nH]ccc5c4)c3)CC2)=C(c2ccc(Cl)cc2)C1 [venetoclax]
- platelet numbers (platelets): little effect
